# Experimental data reported in ChEMBL document CHEMBL1201862, “PubChem BioAssay data set” (2004).
#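 Test compounds were applied to cells in 96-well plates for 48 hours at 5 doses. Here, GI50 denotes the concentration required for 50% inhibition of growth.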 Active and inactive are the calls of the source. Cut-off read from the data, not from the text of the source: active = GI50 up to about 1.1 µM and inactive = higher.
# Tests used:
# Assay in all cases: NCI anticancer screen, dose series, 48 h
# [1] = test system: SNB-19
# [2] = test system: OVCAR-4
# [3] = test system: OVCAR-8
# [4] = test system: COLO 205
# [5] = test system: UACC-62
# [6] = test system: HCT-116
# [7] = test system: MOLT-4
# [8] = test system: TK-10
# [9] = test system: HT-29
# [10] = test system: K562
# [11] = test system: UO-31
# [12] = test system: SNB-75
# [13] = test system: U-251
# [14] = test system: HCT-15
# [15] = test system: OVCAR-3
# [16] = test system: SK-MEL-5
# [17] = test system: NCI-H460
# [18] = test system: ACHN
# [19] = test system: SN12C
# [20] = test system: EKVX
Compound,GI50 [1],GI50 [2],GI50 [3],GI50 [4],GI50 [5],GI50 [6],GI50 [7],GI50 [8],GI50 [9],GI50 [10],GI50 [11],GI50 [12],GI50 [13],GI50 [14] [µM],GI50 [15],GI50 [16],GI50 [17],GI50 [18],GI50 [19],GI50 [20]
CCNC(=S)N/N=C/c1ccccn1,19.6 µM (inactive),1.29 µM (inactive),3.3 µM (inactive),3.24 µM (inactive),9.98 µM (inactive),8.93 µM (inactive),1.58 µM (inactive),25.2 µM (inactive),4.47 µM (inactive),2.86 µM (inactive),2.44 µM (inactive),62.2 µM (inactive),6.55 µM (inactive),6.64,0.729 µM (active),3.95 µM (inactive),4.94 µM (inactive),5.69 µM (inactive),4.97 µM (inactive),4.54 µM (inactive)
COC1OC2COC1(OC)C1OC(C)(C)OC21 (stereo not given),> 100 µM (inactive),> 100 µM (inactive),> 100 µM (inactive),> 100 µM (inactive),> 100 µM (inactive),> 100 µM (inactive),> 100 µM (inactive),> 100 µM (inactive),> 100 µM (inactive),> 100 µM (inactive),> 100 µM (inactive),> 100 µM (inactive),> 100 µM (inactive),> 100,> 100 µM (inactive),> 100 µM (inactive),> 100 µM (inactive),> 100 µM (inactive),> 100 µM (inactive),> 100 µM (inactive)
CN(C)N1C(=O)C(=O)N(c2cccc3ccccc23)C1=O,> 10 µM (inactive),> 10 µM (inactive),> 10 µM (inactive),> 10 µM (inactive),> 10 µM (inactive),> 10 µM (inactive),> 10 µM (inactive),> 10 µM (inactive),> 10 µM (inactive),> 10 µM (inactive),> 10 µM (inactive),> 10 µM (inactive),> 10 µM (inactive),> 10,> 10 µM (inactive),> 10 µM (inactive),> 10 µM (inactive),> 10 µM (inactive),> 10 µM (inactive),> 10 µM (inactive)
COC(=O)C1CCC(=O)C(Sc2ccccc2)C1 (stereo not given),> 100 µM (inactive),> 100 µM (inactive),> 100 µM (inactive),> 100 µM (inactive),80.7 µM (inactive),> 100 µM (inactive),27.6 µM (inactive),> 100 µM (inactive),> 100 µM (inactive),63.1 µM (inactive),21.2 µM (inactive),24.4 µM (inactive),> 100 µM (inactive),> 100,> 100 µM (inactive),> 100 µM (inactive),> 100 µM (inactive),> 100 µM (inactive),> 100 µM (inactive),> 100 µM (inactive)
CC12C3C4C1C1C2C3C41CO (stereo not given),> 100 µM (inactive),> 100 µM (inactive),> 100 µM (inactive),> 100 µM (inactive),> 100 µM (inactive),> 100 µM (inactive),> 100 µM (inactive),> 100 µM (inactive),> 100 µM (inactive),> 100 µM (inactive),> 100 µM (inactive),34 µM (inactive),> 100 µM (inactive),> 100,> 100 µM (inactive),> 100 µM (inactive),> 100 µM (inactive),> 100 µM (inactive),> 100 µM (inactive),> 100 µM (inactive)
